{"source": "patent US20120129834A1", "about": "“SEROTONIN RECEPTOR ANTAGONISTS FOR USE IN THE TREATMENT OF HUNTINGTON'S DISEASE” (BUCK INSTITUTE FOR RESEARCH ON AGING, priority 2010, published 2012)", "key": {"[1]": {"tested_on": "STHdh111Q/111Q cells", "experiment": "viability (ATP) assay of cell death in serum deprived STHdh111Q/111Q cells (Prestwick library screen and dose/response)", "assay_type": "cell-based", "settings": "for loss of viability (ATP levels): dose/response, STHdh111Q/111Q serum deprivation model, FIG. 17 upper panel, n=3/dose; for huntingtin-mediated cell death: screen of the Prestwick Chemical library, cell-based assay of mutant huntingtin-mediated cell death", "method": "Viability as measured by ATP levels (normalized to cell number) in cells after 24 h of serum deprivation. Data are show as percent DMSO control (100%). […]\n(§1) This library is composed of 1,200 marketed drugs with favorable safety, bioavailability and efficacy properties."}, "[2]": {"tested_on": "caspase-3/7", "experiment": "caspase activation assay, STHdh111Q/111Q serum deprivation model", "assay_type": "cell-based", "settings": "dose/response, FIG. 17 lower panel, n=3/dose"}, "[3]": {"tested_on": "R6/2 mouse model of HD", "experiment": "lifespan of R6/2 mice", "assay_type": "in vivo", "settings": "10 mg/kg IP daily, treatment groups compared", "excerpt": "This may reflect a specific mechanism of action for pizotifen."}, "[4]": {"experiment": "weight loss in the mouse model", "assay_type": "in vivo", "settings": "7.5 mg/kg, FIG. 21"}, "[5]": {"tested_on": "ERK pathway", "experiment": "activation of the ERK pathway in vivo (striatum, cortex)", "set-up": "species or system mouse", "settings": "FIG. 23"}, "[6]": {"tested_on": "R6/2 mouse model of HD", "experiment": "open field behavior analysis in R6/2 mice", "assay_type": "in vivo", "settings": "treated vs control", "excerpt": "as §1"}, "[7]": {"tested_on": "DARPP-32", "experiment": "DARPP-32 expression as measure of disease progression", "assay_type": "in vivo", "settings": "mouse model of HD, FIG. 24 panels A-C"}, "[8]": {"tested_on": "R6/2 mouse model of HD", "experiment": "rotarod performance of R6/2 HD mice", "assay_type": "in vivo", "settings": "for rotarod performance / rotarod deficit: at 9 weeks of age, 10 mg/kg"}}, "note": "“Also recorded” adds a separate entry of the source.", "data": [{"smiles": "CN1CCC(=C2c3ccccc3C=Cc3ccccc32)CC1.Cl", "note": "[Cyproheptadine, 4-(5H-dibenzo[a,d]cyclohepten-5-ylidene)-1-methylpiperidine hydrochloride]", "values": [{"measurement": "loss of viability (ATP levels)", "setting": "[1]", "result": "rescue loss of viability"}, {"measurement": "huntingtin-mediated cell death", "setting": "[1]", "result": "reproducibly suppress huntingtin-mediated cell death in a dose-dependent manner"}]}, {"smiles": "CN1CCN(C2=Nc3ccccc3Oc3ccc(Cl)cc32)CC1", "note": "[Loxapine, 2-Chloro-11-(4-methylpiperazin-1-yl)dibenzo[b,f][1,4]oxazepine]", "values": [{"measurement": "caspase-3/7 activation", "setting": "[2]", "result": "rescue"}, {"measurement": "loss of viability (ATP levels)", "setting": "[1]", "result": "rescue loss of viability"}, {"measurement": "huntingtin-mediated cell death", "setting": "[1]", "result": "reproducibly suppress huntingtin-mediated cell death in a dose-dependent manner"}]}, {"smiles": "CN1CCC(=C2c3ccccc3CCc3sccc32)CC1", "note": "[Pizotifen, 4-(1-methyl-4-piperidylidine)-9,10-dihydro-4H-benzo-[4,5]cyclohepta[1,2]-thiophene]", "values": [{"measurement": "lifespan", "setting": "[3]", "result": "no statistical differences"}, {"measurement": "loss of viability (ATP levels)", "setting": "[1]", "result": "rescue loss of viability"}, {"measurement": "huntingtin-mediated cell death", "setting": "[1]", "result": "reproducibly suppress huntingtin-mediated cell death in a dose-dependent manner"}, {"measurement": "weight loss", "setting": "[4]", "result": "doesn't improve or worsen weight loss"}, {"measurement": "activation of the ERK pathway in cortex", "setting": "[5]; cortex", "result": "not observed; also recorded: not cortex activation"}, {"measurement": "activation of the ERK pathway in striatum", "setting": "[5]; striatum", "result": "activation of the ERK pathway in vivo; also recorded: striatal, but not cortex activation"}, {"measurement": "open field, general activity level", "setting": "[6]", "result": "general activity level of treated animals was normal"}, {"measurement": "open field, general activity level", "setting": "[6]; listed as pizotifen", "result": "no statistical differences"}, {"measurement": "DARPP-32 decrease (measure of disease progression)", "setting": "[7]", "result": "rescued"}, {"measurement": "dose dependence of correction of rotarod", "setting": "[8]; FIG. 20", "result": "dose-dependent effect; also recorded: dose dependent response"}, {"measurement": "rotarod performance", "setting": "[8]; R6/2 mice, 10 mg/kg IP daily from 5 weeks of age, after one week of treatment", "result": "improved"}, {"measurement": "rotarod performance / rotarod deficit", "setting": "[8]; R6/2 mice, 10 mg/kg IP daily from 5 weeks of age", "result": "significant beneficial effects"}, {"measurement": "rotarod performance / rotarod deficit", "setting": "[8]; R6/2 mice, 10 mg/kg IP daily from 5 weeks of age, listed as pizotifin", "result": "corrects the rotarod deficit to near wild-type levels"}, {"measurement": "rotarod performance", "setting": "[8]; R6/2 mice, 10 mg/kg IP daily, 6-week old group, after three days of treatment", "result": "significant improvement"}, {"measurement": "motor deficits (Rotarod performance)", "setting": "[8]; R6/2 mice, two independent studies", "result": "robustly correct motor deficits (i.e. Rotarod performance) in R6/2 to near wild-type levels"}]}]}
